In patent publication US8530493B2, “Indolopyridines as Eg5 kinesin modulators” (4SC AG, priority 2006, dated 2013):

Experiments:
Assay type in all cases: cell-based
[1] = tested on: RKO p27 or p21 induced (arrested) colon adenocarcinoma cells; assay: Alamar Blue cell viability assay, RKO p27 or p21 induced (arrested); conditions: Homo sapiens, RKOp27, Table B2, cells arrested by Ponasterone A, 72 hours, read-out: −log EC50 RKO p27 or p21 induced (arrested) (converted)
Description: (§1) To determine the cell cycle specific mode of action, subclones of RKO colon adenocarcinoma cells (RKOp21 or RKOp27 as described by Schmidt et al. in Oncogene 19, 2423-2429; 2000) are seeded into 96 well flat bottom plates at a density of 16000 cells per well in a volume of 50 μl per well in DMEM growth medium with 10% FCS containing 10 μM Ponasterone A. 24 hours after seeding the 50 μl each of the compound dilutions in DMEM medium are added into each well of the 96-well plate. Each compound dilution is tested as triplicates. Wells containing untreated control cells are filled with 50 μl DMEM medium containing 1% DMSO. The cells are then incubated with the substances for 72 hours at 37° C. in a humidified atmosphere containing 5% carbon dioxide. To determine the viability of the cells, 10 μl of an Alamar Blue solution (Biosource) are added and the fluorescence is measured at an extinction of 544 nm and an emission of 590 nm. For the calculation of the cell viability the emission value from untreated cells is set as 100% viability and the emission rates of treated cells are set in relation to the values of untreated cells. Viabilities are expressed as % values. The Graphpad Prism program (GraphPad Software, Inc) is used for the calculation of EC50 values out of the obtained dose-response curves. Viability is compared of proliferating cells grown in the absence of the inducer Ponasterone A, versus viability of cells arrested by the expression of ectopic p27Kip1 induced by Ponasterone A.
(§2) Representative values for anti-proliferation/cytotoxicity [measured as −log EC50 (mol/l)] determined in the aforementioned assays follow from the following tables B1, B2 and B3, in which the numbers of the compounds correspond to the numbers of the examples.

[2] = tested on: RKO p27 or p21 uninduced (proliferating) colon adenocarcinoma cells; assay: Alamar Blue cell viability assay, RKO p27 or p21 uninduced (proliferating); conditions: Homo sapiens, RKOp27, 72 h, Table B2, anti-proliferative/cytotoxic activity, read-out: −log EC50 RKO p27 or p21 uninduced (proliferating) (converted)
Description: The anti-proliferative/cytotoxic activity of the compounds described herein can be tested on subclones of RKO human colon adenocarcinoma cells (Schmidt et al., Oncogene 19, 2423-2429; 2000) using the Alamar Blue cell viability assay (described in O'Brien et al. Eur J Biochem 267, 5421-5426, 2000). The compounds are dissolved as 10 mM solutions in DMSO and subsequently diluted in semi-logarithmic steps. DMSO dilutions are further diluted 1:100 into Dulbecco's modified Eagle's medium (DMEM) containing 10% fetal calf serum to a final concentration twice as much as the final concentration in the test. RKO subclones are seeded into 96 well flat bottom plates at a density of 4000 cells per well in a volume of 50 μl per well. 24 hours after seeding the 50 μl each of the compound dilutions in DMEM medium are added into each well of the 96 well plate. Each compound dilution is tested as triplicates. Wells containing untreated control cells are filled with 50 μl DMEM medium containing 1% DMSO. The cells are then incubated with the substances for 72 hours at 37° C. in a humidified atmosphere containing 5% carbon dioxide. To determine the viability of the cells, 10 μl of an Alamar Blue solution (Biosource) are added and the fluorescence is measured at an extinction of 544 nm and an emission of 590 nm. For the calculation of the cell viability the emission value from untreated cells is set as 100% viability and the emission rates of treated cells are set in relation to the values of untreated cells. Viabilities are expressed as % values. The Graphpad Prism program is used for the calculation of EC50 values for anti-proliferative/cytotoxic activity out of the obtained dose-response curves.
as §1, §2

[3] = tested on: RKO p21 uninduced (proliferating) colon adenocarcinoma cells; assay: Alamar Blue cell viability assay, RKO p21 uninduced (proliferating); conditions: Homo sapiens, Table B3, anti-proliferative/cytotoxic activity, 72 hours, read-out: −log EC50 RKO p21 uninduced (proliferating) (converted)
Method in brief: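 RKO p21 or p27 subclones grown without Ponasterone A, i.e. proliferating, exposed 24 h after seeding to semi-log compound dilutions in DMEM/10% FCS (1% DMSO controls) for 72 h at 37° C. Alamar Blue fluorescence (544/590 nm) read relative to untreated cells; EC50 from dose-response curves, given as −log EC50 (mol/l).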

Row | EC50 [1] | Compound | EC50 [2] | EC50 [3]
1 | ≥ 316 nM | COc1ccc2[nH]c3c(c2c1)C[C@@]1(C)C(=O)N(CCCCl)C(=O)N1[C@@H]3c1cccc(O)c1 (racemic) [Example 55, (3aSR,10RS)-2-(3-Chloro-propyl)-10-(3-hydroxy-phenyl)-6-methoxy-3a-methyl-3a,4,9,10-tetrahydro-2,9,10a-triaza-cyclopenta[b]fluorene-1,3-dione] | 39.8 to 251 nM | 
2 | ≥ 316 nM | C[C@@]12Cc3c([nH]c4ccc(Cl)cc34)[C@@H](c3cccc(O)c3)N1C(=O)N(CCCCl)C2=O (racemic) [Example 57, (3aSR,10RS)-6-Chloro-2-(3-chloro-propyl)-10-(3-hydroxy-phenyl)-3a-methyl-3a,4,9,10-tetrahydro-2,9,10a-triaza-cyclopenta[b]fluorene-1,3-dione] | 39.8 to 251 nM | 
3 | ≥ 3160 nM | COc1ccc2[nH]c3c(c2c1)C[C@@]1(C)C(=O)N(CCCNC(C)C)C(=O)N1[C@@H]3c1cccc(O)c1 (racemic) [Example 67, (3aSR,10RS)-10-(3-Hydroxy-phenyl)-2-(3-isopropylamino-propyl)-6-methoxy-3a-methyl-3a,4,9,10-tetrahydro-2,9,10a-triaza-cyclopenta[b]fluorene-1,3-dione] | ≤ 39.8 nM | 
4 | ≥ 3160 nM | COc1ccc2[nH]c3c(c2c1)C[C@@]1(C)C(=O)N(CCN2CC=CCC2)C(=O)N1[C@@H]3c1cccc(O)c1 (racemic) [Example 68, (3aSR,10RS)-2-[2-(3,6-Dihydro-2H-pyridin-1-yl)-ethyl]-10-(3-hydroxy-phenyl)-6-methoxy-3a-methyl-3a,4,9,10-tetrahydro-2,9,10a-triaza-cyclopenta[b]fluorene-1,3-dione] | ≤ 39.8 nM | 
5 | ≥ 3160 nM | CCN(CC)CCN1C(=O)N2[C@H](c3cccc(O)c3)c3[nH]c4ccc(OC)cc4c3C[C@@]2(C)C1=O (racemic) [Example 69, (3aSR,10RS)-2-(2-Diethylamino-ethyl)-10-(3-hydroxy-phenyl)-6-methoxy-3a-methyl-3a,4,9,10-tetrahydro-2,9,10a-triaza-cyclopenta[b]fluorene-1,3-dione] | ≤ 39.8 nM | 
6 | ≥ 3160 nM | COc1ccc2[nH]c3c(c2c1)C[C@@]1(C)C(=O)N(CCN(C)C(C)C)C(=O)N1[C@@H]3c1cccc(O)c1 (racemic) [Example 70, (3aSR,10RS)-10-(3-Hydroxy-phenyl)-2-[2-(isopropyl-methyl-amino)-ethyl]-6-methoxy-3a-methyl-3a,4,9,10-tetrahydro-2,9,10a-triaza-cyclopenta[b]fluorene-1,3-dione] | ≤ 39.8 nM | 
7 | ≥ 3160 nM | COc1ccc2[nH]c3c(c2c1)C[C@@]1(C)C(=O)N(CCN2CCCCC2)C(=O)N1[C@@H]3c1cccc(O)c1 (racemic) [Example 71, (3aSR,10RS)-10-(3-Hydroxy-phenyl)-6-methoxy-3a-methyl-2-(2-piperidin-1-yl-ethyl)-3a,4,9,10-tetrahydro-2,9,10a-triaza-cyclopenta[b]fluorene-1,3-dione] | ≤ 39.8 nM | 
8 | ≥ 3160 nM | COc1ccc2[nH]c3c(c2c1)C[C@@]1(C)C(=O)N(CCNC(C)(C)C)C(=O)N1[C@@H]3c1cccc(O)c1 (racemic) [Example 72, (3aSR,10RS)-2-(2-tert-Butylamino-ethyl)-10-(3-hydroxy-phenyl)-6-methoxy-3a-methyl-3a,4,9,10-tetrahydro-2,9,10a-triaza-cyclopenta[b]fluorene-1,3-dione] | ≤ 39.8 nM | 
9 | ≥ 3160 nM | COc1ccc2[nH]c3c(c2c1)C[C@@]1(C)C(=O)N(CCNCC(F)F)C(=O)N1[C@@H]3c1cccc(O)c1 (racemic) [Example 73, (3aSR,10RS)-2-[2-(2,2-Difluoro-ethylamino)-ethyl]-10-(3-hydroxy-phenyl)-6-methoxy-3a-methyl-3a,4,9,10-tetrahydro-2,9,10a-triaza-cyclopenta[b]fluorene-1,3-dione] | 39.8 to 251 nM | 
10 | ≥ 3160 nM | COc1ccc2[nH]c3c(c2c1)C[C@@]1(C)C(=O)N(CCN2CCCCCC2)C(=O)N1[C@@H]3c1cccc(O)c1 (racemic) [Example 74, (3aSR,10RS)-2-(2-Azepan-1-yl-ethyl)-10-(3-hydroxy-phenyl)-6-methoxy-3a-methyl-3a,4,9,10-tetrahydro-2,9,10a-triaza-cyclopenta[b]fluorene-1,3-dione] | ≤ 39.8 nM | 
11 | ≥ 3160 nM | COc1ccc2[nH]c3c(c2c1)C[C@@]1(C)C(=O)N(CCN2CCC(C)CC2)C(=O)N1[C@@H]3c1cccc(O)c1 (racemic) [Example 75, (3aSR,10RS)-10-(3-Hydroxy-phenyl)-6-methoxy-3a-methyl-2-[2-(4-methyl-piperidin-1-yl)-ethyl]-3a,4,9,10-tetrahydro-2,9,10a-triaza-cyclopenta[b]fluorene-1,3-dione] | 39.8 to 251 nM | 
12 | ≥ 3160 nM | CNCCCN1C(=O)N2[C@H](c3cccc(O)c3)c3[nH]c4ccc(OC)cc4c3C[C@@]2(C)C1=O (racemic) [Example 76, (3aSR,10RS)-10-(3-Hydroxy-phenyl)-6-methoxy-3a-methyl-2-(3-methylamino-propyl)-3a,4,9,10-tetrahydro-2,9,10a-triaza-cyclopenta[b]fluorene-1,3-dione] | ≤ 39.8 nM | 
13 | ≥ 3160 nM | CCN(C)CCCN1C(=O)N2[C@H](c3cccc(O)c3)c3[nH]c4ccc(OC)cc4c3C[C@@]2(C)C1=O (racemic) [Example 77, (3aSR,10RS)-2-[3-(Ethyl-methyl-amino)-propyl]-10-(3-hydroxy-phenyl)-6-methoxy-3a-methyl-3a,4,9,10-tetrahydro-2,9,10a-triaza-cyclopenta[b]fluorene-1,3-dione] | ≤ 39.8 nM | 
14 |  | CCN(C)CCCN1C(=O)N2[C@H](c3cccc(O)c3)c3[nH]c4ccc(OC)cc4c3C[C@@]2(C)C1=O [Example 541, (3aS,10R)-2-[3-(Ethyl-methyl-amino)-propyl]-10-(3-hydroxy-phenyl)-6-methoxy-3a-methyl-3a,4,9,10-tetrahydro-2,9,10a-triaza-cyclopenta[b]fluorene-1,3-dione] |  | ≤ 39.8 nM
15 |  | COc1ccc2[nH]c3c(c2c1)C[C@@]1(C)C(=O)N(CCCN(C)CCO)C(=O)N1[C@@H]3c1cccc(O)c1 [Example 542, (3aS,10R)-2-{3-[(2-Hydroxy-ethyl)-methyl-amino]-propyl}-10-(3-hydroxy-phenyl)-6-methoxy-3a-methyl-3a,4,9,10-tetrahydro-2,9,10a-triaza-cyclopenta[b]fluorene-1,3-dione] |  | ≤ 39.8 nM
16 |  | CCN(CCO)CCCN1C(=O)N2[C@H](c3cccc(O)c3)c3[nH]c4ccc(OC)cc4c3C[C@@]2(C)C1=O [Example 543, (3aS,10R)-2-{3-[Ethyl-(2-hydroxy-ethyl)-amino]-propyl}-10-(3-hydroxy-phenyl)-6-methoxy-3a-methyl-3a,4,9,10-tetrahydro-2,9,10a-triaza-cyclopenta[b]fluorene-1,3-dione] |  | ≤ 39.8 nM
17 |  | CCN(CCCN1C(=O)N2[C@H](c3cccc(O)c3)c3[nH]c4ccc(OC)cc4c3C[C@@]2(C)C1=O)CCOC [Example 544, (3aS,10R)-2-{3-[Ethyl-(2-methoxy-ethyl)-amino]-propyl}-10-(3-hydroxy-phenyl)-6-methoxy-3a-methyl-3a,4,9,10-tetrahydro-2,9,10a-triaza-cyclopenta[b]fluorene-1,3-dione] |  | ≤ 39.8 nM
